We go through 19 compounds from patent publication US7348318B2, “α-Amino-N-(diaminophosphinyl)lactam derivatives” (priority 2002, dated 2008).

The assay addresses T1, dipeptidyl peptidase IV (Rattus norvegicus, UniProt P14740).
T1 construct: partially purified from rat kidney homogenate by ammonium sulfate fractionation; from tissue; host or cells: rat kidney
Briefly: biochemical. As to conditions: glycyl·prolyl·β-naphthylamide, pH 7.2, 37° C., 1 hour, read-out: Dipeptidyl peptidase IV 50% inhibition activity value (converted).

Structures can show the parent of a compound that is named as a salt.

T1 sequence (P14740 whole entry): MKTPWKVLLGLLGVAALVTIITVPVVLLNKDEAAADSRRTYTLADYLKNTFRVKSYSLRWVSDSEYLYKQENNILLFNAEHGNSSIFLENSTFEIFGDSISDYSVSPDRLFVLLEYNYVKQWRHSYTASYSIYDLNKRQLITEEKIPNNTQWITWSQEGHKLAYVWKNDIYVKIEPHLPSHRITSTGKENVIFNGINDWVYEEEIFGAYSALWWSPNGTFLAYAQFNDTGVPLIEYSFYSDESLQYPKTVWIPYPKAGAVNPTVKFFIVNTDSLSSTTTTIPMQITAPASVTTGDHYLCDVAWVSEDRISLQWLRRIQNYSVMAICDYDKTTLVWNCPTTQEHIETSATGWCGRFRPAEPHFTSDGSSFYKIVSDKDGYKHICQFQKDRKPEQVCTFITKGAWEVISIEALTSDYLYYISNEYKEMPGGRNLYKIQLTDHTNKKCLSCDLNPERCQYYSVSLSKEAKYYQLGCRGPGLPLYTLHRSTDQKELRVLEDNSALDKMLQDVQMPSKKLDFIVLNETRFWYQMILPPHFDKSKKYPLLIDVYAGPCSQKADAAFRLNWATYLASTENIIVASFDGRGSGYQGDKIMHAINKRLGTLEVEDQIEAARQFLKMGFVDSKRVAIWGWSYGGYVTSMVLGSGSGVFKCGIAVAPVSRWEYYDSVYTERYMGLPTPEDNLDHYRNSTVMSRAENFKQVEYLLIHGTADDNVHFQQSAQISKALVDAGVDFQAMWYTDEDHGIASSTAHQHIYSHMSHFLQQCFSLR

As for `CCCNP(N)(=O)N1CCC[C@H](N)C1=O` (mixture of isomers) [Example 15, (3S, P (RS))-3-amino-1-amino(n-propylamino)phosphinyl-2-piperidone], the IC50 was 7260 nM. On to `N[C@H]1CCCN(P(N)(=O)NC(=O)c2ccccc2)C1=O` (mixture of isomers) [Example 39, (3S, P (RS))-3-amino-1-amino(benzoylamino)phosphinyl-2-piperidone], for which the IC50 is 2400 nM. `CCCC(=O)NP(N)(=O)N1CCC[C@H](N)C1=O` (mixture of isomers) [Example 51, (3S, P (SR))-3-amino-1-amino(n-butanoylamino)phosphinyl-2-piperidone]: the IC50 was 1140 nM. For `CC(C)(C)CC(=O)NP(N)(=O)N1CCC[C@H](N)C1=O` (mixture of isomers) [Example 53, (3S, P (SR))-3-amino-1-amino(t-butylacetylamino)phosphinyl-2-piperidone], the IC50 is 1480 nM. In the case of `N[C@H]1CCCN(P(N)(=O)NC(=O)C2CCCCC2)C1=O` (mixture of isomers) [Example 55, (3S, P (SR))-3-amino-1-amino(cyclohexanecarbonylamino)phosphinyl-2-piperidone], the IC50 is 1590 nM.

`N[C@H]1CCCN(P(N)(=O)NC(=O)COc2ccccc2)C1=O` (mixture of isomers) [Example 57, (3S, P (SR))-3-amino-1-amino(phenoxyacetylamino)phosphinyl-2-piperidone]: the IC50 is 187 nM. Take `N[C@H]1CCCN(P(N)(=O)NC(=O)CCc2ccccc2)C1=O` (mixture of isomers) [Example 59, (3S, P (SR))-3-amino-1-amino(3-phenylpropanoylamino)phosphinyl-2-piperidone]: the IC50 was 894 nM. The same measure for `COc1ccc(C(=O)NP(N)(=O)N2CCC[C@H](N)C2=O)cc1` (mixture of isomers) [Example 61, (3S, P (SR))-3-amino-1-amino(4-methoxybenzoylamino)phosphinyl-2-piperidone]: 1070 nM. Turning to `N[C@H]1CCCN(P(N)(=O)Nc2ccccc2)C1=O` (single isomer, unassigned) [Example 17, (3S, P (R or S))-3-amino-1-amino(phenylamino)phosphinyl-2-piperidone], the IC50 was 5590 nM. The same measure for `CC(=O)NP(N)(=O)N1CCC[C@H](N)C1=O` (single isomer, unassigned) [Example 48, (3S, P (R or S))-3-amino-1-amino(acetylamino)phosphinyl-2-piperidone ½ fumarate]: 1620 nM; for `N[C@H]1CCCN(P(=O)(Nc2ccccc2)Nc2ccccc2)C1=O` [Example 11, (3S)-3-amino-1-bis(phenylamino)phosphinyl-2-piperidone]: 43600 nM; for `CN[C@H]1CCCN(P(N)(N)=O)C1=O` [Example 22, (3S)-3-methylamino-1-diaminophosphinyl-2-piperidone]: 1410 nM.

Take `CCCN[C@H]1CCCN(P(N)(N)=O)C1=O` [Example 25, (3S)-3-n-propylamino-1-diaminophosphinyl-2-piperidone]: the IC50 was 3670 nM. As for `CC(C)N[C@H]1CCCN(P(N)(N)=O)C1=O` [Example 28, (3S)-3-isopropylamino-1-diaminophosphinyl-2-piperidone], the IC50 is 17900 nM.

For the compound `CCCCN[C@H]1CCCN(P(N)(N)=O)C1=O` [Example 31, (3S)-3-n-butylamino-1-diaminophosphinyl-2-piperidone], the IC50 is 3750 nM. As for `NP(N)(=O)N1CCC[C@H](NCc2ccccc2)C1=O` [Example 34, (3S)-3-benzylamino-1-diaminophosphinyl-2-piperidone], the IC50 was 3900 nM.

With `NP(N)(=O)N1CCC[C@H](NCc2ccco2)C1=O` [Example 37, (3S)-3-furfurylamino-1-diaminophosphinyl-2-piperidone], the IC50 is 7710 nM. Under `N[C@@H]1CCCN(P(N)(N)=O)C1=O` [Example 42, (3R)-3-amino-1-diaminophosphinyl-2-piperidone] stands 48.4 nM; under `N[C@H]1CCCCN(P(N)(N)=O)C1=O` [Example 43, (3S)-3-amino-1-diaminophosphinyl-2-perhydroazepinone], 107 nM.
